We go through 15 molecules from patent US20230271954A1 (Gossamer Bio Services, Inc., priority 2020, published 2023).

The structures appear in SMILES notation.

The target of assay [1] is T1, DGKζ (Homo sapiens, UniProt Q13574).
T1 construct: purchased Carna 12-110
In words: DGKζ biochemical assay (ADP-Glo). The settings on record: read-out: DGK ζ IC50.

The target in assay [2] is DGKα (Homo sapiens, UniProt P23743). Kind of assay: DGKα biochemical assay (ADP-Glo). To be noted: read-out: DGK α IC50. The gist of the method:
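ADP-Glo kinase assay using OAG/PS (1:2) lipid substrate, sonicated, in HEPES pH 7.0 buffer with MgCl2, CaCl2, DTT, BSA, Triton X-100. Enzyme preincubated with compound 30 min at RT; substrate with ATP (DGKα: 400 μM) added, 45 min RT. Luminescence read; % inhibition vs DMSO and no-enzyme controls.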

Sequence of DGKα (P23743 whole entry): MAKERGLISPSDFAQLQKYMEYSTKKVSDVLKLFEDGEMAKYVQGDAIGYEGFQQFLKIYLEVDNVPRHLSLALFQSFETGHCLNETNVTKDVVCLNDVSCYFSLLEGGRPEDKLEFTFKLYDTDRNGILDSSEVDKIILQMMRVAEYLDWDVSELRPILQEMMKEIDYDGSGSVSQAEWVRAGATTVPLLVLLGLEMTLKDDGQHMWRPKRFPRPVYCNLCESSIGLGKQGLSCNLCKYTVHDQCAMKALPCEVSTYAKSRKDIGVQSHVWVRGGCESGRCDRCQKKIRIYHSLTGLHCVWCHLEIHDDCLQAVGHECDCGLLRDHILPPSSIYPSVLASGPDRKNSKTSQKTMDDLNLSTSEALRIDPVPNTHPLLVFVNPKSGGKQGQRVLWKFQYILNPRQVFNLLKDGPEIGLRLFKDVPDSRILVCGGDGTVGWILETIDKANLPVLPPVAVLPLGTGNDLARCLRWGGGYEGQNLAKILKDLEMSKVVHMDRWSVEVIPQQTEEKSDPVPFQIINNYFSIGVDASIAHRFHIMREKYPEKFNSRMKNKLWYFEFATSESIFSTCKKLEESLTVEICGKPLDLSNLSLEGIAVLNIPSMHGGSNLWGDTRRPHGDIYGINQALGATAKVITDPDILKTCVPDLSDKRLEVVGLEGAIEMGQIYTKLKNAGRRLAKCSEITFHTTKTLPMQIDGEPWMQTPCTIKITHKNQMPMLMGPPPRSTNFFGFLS
T1 sequence (Q13574 1-929 isoform Q13574-4): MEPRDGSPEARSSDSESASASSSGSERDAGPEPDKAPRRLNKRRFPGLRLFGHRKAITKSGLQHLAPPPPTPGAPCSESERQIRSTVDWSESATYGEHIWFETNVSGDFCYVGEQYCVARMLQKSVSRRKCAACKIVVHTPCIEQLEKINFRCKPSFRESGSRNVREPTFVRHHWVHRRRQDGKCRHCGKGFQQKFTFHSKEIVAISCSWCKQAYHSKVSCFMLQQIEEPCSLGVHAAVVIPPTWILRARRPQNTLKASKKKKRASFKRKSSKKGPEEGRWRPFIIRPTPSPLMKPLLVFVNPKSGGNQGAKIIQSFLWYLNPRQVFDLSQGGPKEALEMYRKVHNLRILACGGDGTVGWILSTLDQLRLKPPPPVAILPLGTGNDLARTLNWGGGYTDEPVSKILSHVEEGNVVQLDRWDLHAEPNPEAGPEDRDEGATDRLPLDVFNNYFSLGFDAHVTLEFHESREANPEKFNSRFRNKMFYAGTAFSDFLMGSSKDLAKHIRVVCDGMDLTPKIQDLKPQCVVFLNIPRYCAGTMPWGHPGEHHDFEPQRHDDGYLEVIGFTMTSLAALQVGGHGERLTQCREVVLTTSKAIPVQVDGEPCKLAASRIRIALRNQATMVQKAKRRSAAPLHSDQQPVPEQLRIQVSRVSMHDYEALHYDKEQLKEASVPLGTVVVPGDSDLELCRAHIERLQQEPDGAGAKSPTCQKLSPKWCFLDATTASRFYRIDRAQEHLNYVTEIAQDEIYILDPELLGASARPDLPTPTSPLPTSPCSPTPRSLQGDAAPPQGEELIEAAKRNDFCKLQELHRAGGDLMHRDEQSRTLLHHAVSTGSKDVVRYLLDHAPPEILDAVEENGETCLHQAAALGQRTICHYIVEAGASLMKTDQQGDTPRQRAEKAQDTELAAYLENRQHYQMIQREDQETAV

Broadly, the IC50 is the point on the concentration scale where inhibition reaches its midpoint. As for `Cn1c(=O)cc(N(C)[C@H]2CC[C@@H](N(Cc3ccccc3)CC3CC3)CC2)c2nc(C#N)ccc21` [Example 214, cis-8-((-4-(benzyl(cyclopropylmethyl)amino)cyclohexyl)(methyl)amino)-5-methyl-6-oxo-5,6-dihydro-1,5-naphthyridine-2-carbonitrile], the IC50 in assay [1] and in assay [2] was no less than 1000 nM throughout.

`COc1cc(N(CC2CC2)[C@H]2CC[C@H](N(C)c3c(C#N)c(=O)n(C)c4ccc(Cl)nc34)CC2)cc(F)c1F` [Example 85]: the IC50 in assay [1] is no less than 1000 nM; in assay [2] it was less than 10 nM.

For the molecule `COc1cc(F)ccc1N(C1CC1)[C@H]1CC[C@H](N(C)c2cc(=O)n(C)c3ccc(C#N)nc23)CC1` [Example 3V], the IC50 is 100 to 1000 nM in assay [1] and no less than 1000 nM in assay [2].

Turning to `Cc1nc(F)ccc1N(CC1CCC1)[C@H]1CC[C@H](N(C)c2c(C#N)c(=O)n(C)c3ccc(Cl)nc23)CC1` [Example 139, trans-6-chloro-4-((-4-((cyclobutylmethyl)(6-fluoro-2-methylpyridin-3-yl)amino)cyclohexyl)(methyl)amino)-1-methyl-2-oxo-1,2-dihydro-1,5-naphthyridine-3-carbonitrile], the IC50 in assay [1] and in assay [2] was no less than 1000 nM each time.

Consider `Cn1c(=O)cc(N(C)[C@H]2CC[C@@H](N(CC3CC3)c3ccc4c(c3)COC4)CC2)c2nc(C#N)ccc21` [Example 192, cis-8-((4-((cyclopropylmethyl)(1,3-dihydroisobenzofuran-5-yl)amino)cyclohexyl) (methyl)amino)-5-methyl-6-oxo-5,6-dihydro-1,5-naphthyridine-2-carbonitrile], for which the IC50 in assay [1] was in the range of 100 to 1000 nM; in assay [2], 10 to 100 nM.

Consider `Cc1nc(F)ccc1N(CC1CCOC1)[C@H]1CC[C@H](N(C)c2c(C#N)c(=O)n(C)c3ccc(C#N)nc23)CC1` (stereo partly drawn) [Example 130, trans-8-((-4-((6-fluoro-2-methylpyridin-3-yl) ((tetrahydrofuran-3-yl)methyl)amino)cyclohexyl) (methyl)amino)-5-methyl-6-oxo-5,6-dihydro-1,5-naphthyridine-2,7-dicarbonitrile], for which the IC50 in assay [1] and in assay [2] was 100 to 1000 nM in each case.

`Cc1cc(F)ccc1N(CC1CC1)[C@H]1CC[C@H](N(C)c2c(C#N)c(=O)n(C)c3ccc(C#N)nc23)CC1` [Example 73, trans-8-((4-((cyclopropylmethyl)(4-fluoro-2-methylphenyl)amino)cyclohexyl)(methyl)amino)-5-methyl-6-oxo-5,6-dihydro-1,5-naphthyridine-2,7-dicarbonitrile]: the IC50 in assay [1] and in assay [2] was 10 to 100 nM throughout.

In the case of `CN1C(=O)COc2ccc(N(CC3CC3)[C@H]3CC[C@@H](N(C)c4c(C#N)c(=O)n(C)c5ccc(C#N)nc45)CC3)cc21` [Example 198, cis-8-((4-((cyclopropylmethyl)(4-methyl-3-oxo-3,4-dihydro-2H-benzo[b][1,4]oxazin-6-yl)amino)cyclohexyl)(methyl)amino)-5-methyl-6-oxo-5,6-dihydro-1,5-naphthyridine-2,7-dicarbonitrile], the IC50 in assay [1] and in assay [2] was no less than 1000 nM throughout.

In the case of `Cc1cc(F)cc(N(CC2CCC2)[C@H]2CC[C@H](N(C)c3c(C#N)c(=O)n(C)c4ccc(C#N)nc34)CC2)c1` [Example 94], the IC50 in assay [1] and in assay [2] was 100 to 1000 nM each time.

`CC(C)C(=O)N(c1ccc(F)cc1)[C@H]1CC[C@@H](N(C)c2c(C#N)c(=O)n(C)c3ccc(C#N)nc23)CC1` [Example 209, cis-N-(4-((3,6-dicyano-1-methyl-2-oxo-1,2-dihydro-1,5-naphthyridin-4-yl)(methyl)amino)cyclohexyl)-N-(4-fluorophenyl)isobutyramide]: the concentration for half-maximal inhibition (IC50) in assay [1] was no less than 1000 nM; in assay [2], 100 to 1000 nM.

For `Cn1c(=O)c(C#N)c(N(C)[C@H]2CC[C@@H](N(CC3COCCO3)c3ccc4c(c3)OCO4)CC2)c2nc(C#N)ccc21` (stereo partly drawn) [Example 177, cis-8-((4-(((1,4-dioxan-2-yl)methyl)(benzo[d][1,3]dioxol-5-yl)amino)cyclohexyl)(methyl)amino)-5-methyl-6-oxo-5,6-dihydro-1,5-naphthyridine-2,7-dicarbonitrile], the IC50 in assay [1] and in assay [2] was less than 10 nM in each case.

As to `Cn1c(=O)cc(N(C)[C@H]2CC[C@H](N(CC3CC3)c3cc(F)cc(F)c3)CC2)c2nc(C#N)ccc21` [Example 90], the IC50 in assay [1] and in assay [2] was no less than 1000 nM in each case.

Take `Cn1c(=O)c(C#N)c(N(C)[C@H]2CC[C@@H](N(C(=O)C3CC3)c3ccc(F)cc3)CC2)c2nc(C#N)ccc21` [Example 206, cis-N-(4-((3,6-dicyano-1-methyl-2-oxo-1,2-dihydro-1,5-naphthyridin-4-yl)(methyl)amino)cyclohexyl)-N-(4-fluorophenyl)cyclopropanecarboxamide]: the IC50 in assay [1] is no less than 1000 nM; in assay [2] it was 10 to 100 nM.

For `Cc1cc(F)cc(N(CC2CCC2)[C@H]2CC[C@@H](N(C)c3cc(=O)n(C)c4ccc(C#N)nc34)CC2)c1` [Example 114, cis-8-((-4-((cyclobutylmethyl)(3-fluoro-5-methylphenyl)amino)cyclohexyl)(methyl)amino)-5-methyl-6-oxo-5,6-dihydro-1,5-naphthyridine-2-carbonitrile], the IC50 in assay [1] is no less than 1000 nM; in assay [2], 10 to 100 nM.

With `Cn1c(=O)c(C#N)c(N(C)[C@H]2CC[C@H](N(c3ccc(F)cc3)C3CCC3)CC2)c2nc(Cl)ccc21` [Example 20, trans-6-chloro-4-((4-(cyclobutyl(4-fluorophenyl)amino)cyclohexyl)(methyl)amino)-1-methyl-2-oxo-1,2-dihydro-1,5-naphthyridine-3-carbonitrile], the results for the IC50 in assay [1] and in assay [2] were no less than 1000 nM and 10 to 100 nM, respectively.
